Values of other authors in patent US20220088150A1, “Octreotide Microsphere-Based Arterial Embolization for Treating Obesity” (Biovena Science, LLC, priority 2018, published 2022).

Columns and labels:
ghrelin secretion = details: continuous infusion, dose- and time-dependent
insulin hypersecretion = details: six months, 5-15 μg/kg/day
[1] = subcutaneously 5-15 μg/kg/day, six months, compared with placebo

SMILES: C[C@@H](O)[C@@H]1NC(=O)[C@H](CCCCN)NC(=O)[C@@H](Cc2c[nH]c3ccccc23)NC(=O)[C@H](Cc2ccccc2)NC(=O)[C@@H](NC(=O)[C@H](N)Cc2ccccc2)CSSC[C@@H](C(=O)N[C@H](CO)[C@@H](C)O)NC1=O [octreotide, D-phenylalanyl-L-cysteinyl-L-phenylalanyl-D-tryptophyl-L-lysyl-L-threonyl-L-cysteinyl-L-threoninol (2→7)-disulfide]
- ghrelin secretion (ghrelin secretion): suppresses ghrelin secretion
- splanchnic blood flow (healthy human subjects): reduces splanchnic blood flow
- gastric emptying (human, in vivo): delays gastric emptying
- calorie intake decrease (insulin hypersecretion): approximately 700 kcal/day
- BMI (insulin hypersecretion; vs pre-study observation period, p=0.0001): BMI decrease
- weight loss (insulin hypersecretion; vs six-month pre-study observation period, p=0.04): greater weight loss
- weight and BMI [1]: effective in stabilizing weight and BMI
